Assay results as given in patent US10428087B2, “Pyrimidinones as PI3K inhibitors” (Incyte Corporation, priority 2009, dated 2019).
Structures can show the parent of a compound that is named as a salt.

These compounds were tested on B cells (assay: B cell proliferation assay (Example B1)). Conditions: B-cell; purified human B cells, anti-human IgM, [3H]-thymidine.
Type: cell-based
Description: To acquire B cells, human PBMC were isolated from the peripheral blood of normal, drug free donors by standard density gradient centrifugation on Ficoll-Hypague (GE Healthcare, Piscataway, N.J.) and incubated with anti-CD19 microbeads (Miltenyi Biotech, Auburn, Calif.). The B cells were then purified by positive immunosorting using an autoMacs (Miltenyi Biotech) according to the manufacturer's instruction.
The purified B cells (2×10^5/well/200 μL) were cultured in 96-well ultra-low binding plates (Corning, Corning, N.Y.) in RPMI1640, 10% FBS and goat F(ab′)2 anti-human IgM ([…]) (Invitrogen, Carlsbad, Calif.), in the presence of different amount of test compounds, […] [^3H]-thymidine (1 μCi/well) (PerkinElmer, Boston, Mass.) in PBS was then added to the B cell cultures for an additional 12 hrs before the incorporated radioactivity was separated by filtration with water through GF/B filters (Packard Bioscience, Meriden, Conn.) and measured by liquid scintillation counting with a TopCount (Packard Bioscience). […] See Table 2 for data related to compounds of the invention.
With `Cc1csc2nc([C@H](C)Nc3ncnc4[nH]cnc34)c(-c3cccc(F)c3)c(=O)n12` [Example 15, (S)-7-(1-(9H-purin-6-ylamino)ethyl)-6-(3-fluorophenyl)-3-methyl-5H-thiazolo[3,2-a]pyrimidin-5-one] the IC50 was < 50 nM. With `Cc1csc2nc(C(C)Nc3nc(N)nc4[nH]cnc34)c(-c3cc(F)cc(F)c3)c(=O)n12` (stereo not shown) [Example 13, 7-{1-[(2-amino-9H-purin-6-yl)amino]ethyl}-6-(3,5-difluorophenyl)-3-methyl-5H-[1,3]thiazolo[3,2-a]pyrimidin-5-one] the IC50 was < 50 nM.

The compounds below were run on Pfeiffer cell line (diffuse large B cell lymphoma) (assay: Pfeiffer cell proliferation assay (Example B2)). Conditions: Homo sapiens, Pfeiffer, Pfeiffer cells, [3H]-thymidine.
Type: cell-based
Description: Pfeiffer cell line (diffuse large B cell lymphoma) was purchased from ATCC (Manassas, Va.) and maintained in the culture medium recommended (RPMI and 10% FBS). To measure the anti-proliferation activity of the PI3Kδ submittals, the Pfeiffer cells were plated with the culture medium (2×10^3 cells/well/per 200 μl) into 96-well ultra-low binding plates (Corning, Corning, N.Y.), in the presence or absence of a concentration range of test compounds. After 3-4 days, [^3H]-thymidine (1 μCi/well) (PerkinElmer, Boston, Mass.) in PBS was then added to the cell culture for an additional 12 hrs before the incorporated radioactivity was separated by filtration with water through GF/B filters (Packard Bioscience, Meridenj, Conn.) and measured by liquid scintillation counting with a TopCount (Packard Bioscience). See Table 3 for data related to compounds of the invention.
`Cc1cccc2nc(C(C)Nc3nc(N)nc4[nH]cnc34)c(-c3ccccc3Cl)c(=O)n12` (stereo not shown) [Example 58, 2-{1-[(2-Amino-9H-purin-6-yl)amino]ethyl}-3-(2-chlorophenyl)-6-methyl-4H-pyrido[1,2-a]pyrimidin-4-one trifluoroacetic acid salt] was tested, and the IC50 was < 50 nM. With `Cc1csc2nc(C(C)Nc3ncnc4[nH]cnc34)c(-c3cc(F)cc(Cl)c3)c(=O)n12` (stereo not shown) [Example 37, 6-(3-chloro-5-fluorophenyl)-3-methyl-7-[1-(9H-purin-6-ylamino)ethyl]-5H-[1,3]thiazolo[3,2-a]pyrimidin-5-one trifluoroacetic acid salt] the IC50 was 50 to 100 nM. `Cc1csc2nc(C(C)Nc3ncnc4[nH]cnc34)c(-c3cc(F)ccc3F)c(=O)n12` (stereo not shown) [Example 45, 6-(2,5-difluorophenyl)-3-methyl-7-[1-(9H-purin-6-ylamino)ethyl]-5H-[1,3]thiazolo[3,2-a]pyrimidin-5-one trifluoroacetic acid salt] gave an IC50 of 50 to 100 nM. With `Cc1csc2nc(C(C)Nc3ncnc4[nH]cnc34)c(-c3ccccc3F)c(=O)n12` (stereo not shown) [Example 40, 6-(2-fluorophenyl)-3-methyl-7-[1-(9H-purin-6-ylamino)ethyl]-5H-[1,3]thiazolo[3,2-a]pyrimidin-5-one trifluoroacetic acid salt] the IC50 was 50 to 100 nM. For `Cc1csc2nc(C(C)Nc3nc(N)nc4[nH]cnc34)c(-c3cccc(F)c3F)c(=O)n12` (stereo not shown) [Example 34, 7-{1-[(2-amino-9H-purin-6-yl)amino]ethyl}-6-(2,3-difluorophenyl)-3-methyl-5H-[1,3]thiazolo[3,2-a]pyrimidin-5-one trifluoroacetic acid salt], the IC50 was < 50 nM. `Cc1csc2nc(C(C)Nc3ncnc4[nH]cnc34)c(-c3nccs3)c(=O)n12` (stereo not shown) [Example 20, 3-methyl-7-[1-(9H-purin-6-ylamino)ethyl]-6-(1,3-thiazol-2-yl)-5H-[1,3]thiazolo[3,2-a]pyrimidin-5-one trifluoroacetic acid salt] was tested, and the IC50 was 50 to 100 nM. With `COc1cccc(-c2c(C(C)Nc3ncnc4[nH]cnc34)nc3cccc(C)n3c2=O)c1` (stereo not shown) [Example 65, 3-(3-Methoxyphenyl)-6-methyl-2-[1-(9H-purin-6-ylamino)ethyl]-4H-pyrido[1,2-a]pyrimidin-4-one trifluoroacetic acid salt] the IC50 was 50 to 100 nM. Compound `Cc1cccc(-c2c(C(C)Nc3nc(N)nc4[nH]cnc34)nc3cccc(C)n3c2=O)c1` (stereo not shown) [Example 52, 2-{1-[(2-Amino-9H-purin-6-yl)amino]ethyl}-6-methyl-3-(3-methylphenyl)-4H-pyrido[1,2-a]pyrimidin-4-one trifluoroacetic acid salt] has an IC50 of 50 to 100 nM. In the case of `Cc1csc2nc(C(C)Nc3ncnc4[nH]cnc34)c(-c3ccccn3)c(=O)n12` (stereo not shown) [Example 14, 3-methyl-7-[1-(9H-purin-6-ylamino)ethyl]-6-pyridin-2-yl-5H-[1,3]thiazolo[3,2-a]pyrimidin-5-one], the IC50 is reported as > 1000 nM. In the case of `Cc1cccc2nc(C(C)Nc3nc(N)nc4[nH]cnc34)c(-c3ccccc3)c(=O)n12` (stereo not shown) [Example 50, 2-{1-[(2-Amino-9H-purin-6-yl)amino]ethyl}-6-methyl-3-phenyl-4H-pyrido[1,2-a]pyrimidin-4-one trifluoroacetic acid salt], the IC50 is reported as < 50 nM. For `CCc1cccc2nc(C(C)Nc3ncnc4[nH]cnc34)c(-c3ccc(F)cc3)c(=O)n12` (stereo not shown) [Example 78, 6-Ethyl-3-(4-fluorophenyl)-2-[1-(9H-purin-6-ylamino)ethyl]-4H-pyrido[1,2-a]pyrimidin-4-one trifluoroacetic acid salt], the IC50 was 100 to 500 nM. For `Cc1cccc2nc(C(C)Nc3ncnc4[nH]cnc34)c(-c3ccc(F)c(F)c3)c(=O)n12` (stereo not shown) [Example 68, 3-(3,4-Difluorophenyl)-6-methyl-2-[1-(9H-purin-6-ylamino)ethyl]-4H-pyrido[1,2-a]pyrimidin-4-one trifluoroacetic acid salt], the IC50 was 500 to 1000 nM. With `Cc1csc2nc([C@H](C)Nc3ncnc4[nH]ccc34)c(-c3cc(F)cc(F)c3)c(=O)n12` [Example 17, 6-(3,5-difluorophenyl)-3-methyl-7-[1-(7H-pyrrolo[2,3-d]pyrimidin-4-ylamino)ethyl]-5H-[1,3]thiazolo[3,2-a]pyrimidin-5-one] the IC50 was 100 to 500 nM. Work on `Cc1cccc2nc(C(C)Nc3ncnc4[nH]cnc34)c(-c3cc(F)ccc3F)c(=O)n12` (stereo not shown) [Example 67, 3-(2,5-Difluorophenyl)-6-methyl-2-[1-(9H-purin-6-ylamino)ethyl]-4H-pyrido[1,2-a]pyrimidin-4-one trifluoroacetic acid salt] yielded an IC50 of 50 to 100 nM. `Cc1cccc2nc(C(C)Nc3nc(N)nc4[nH]cnc34)c(-c3ccc(C#N)cc3)c(=O)n12` (stereo not shown) [Example 62, 4-(2-{1-[(2-Amino-9H-purin-6-yl)amino]ethyl}-6-methyl-4-oxo-4H-pyrido[1,2-a]pyrimidin-3-yl)benzonitrile trifluoroacetic acid salt] showed an IC50 of 500 to 1000 nM. For `Cc1csc2nc([C@H](C)Nc3ccnc4[nH]cnc34)c(-c3cccc(F)c3)c(=O)n12` [Example 46, 6-(3-Fluorophenyl)-7-[(1S)-1-(3H-imidazo[4,5-b]pyridin-7-ylamino)ethyl]-3-methyl-5H-[1,3]thiazolo[3,2-a]pyrimidin-5-one], the IC50 was < 50 nM. Compound `CC(Nc1ncnc2[nH]cnc12)c1nc2sccn2c(=O)c1-c1cc(F)cc(F)c1` (stereo not shown) [Example 25, 6-(3,5-difluorophenyl)-7-[1-(9H-purin-6-ylamino)ethyl]-5H-[1,3]thiazolo[3,2-a]pyrimidin-5-one] has an IC50 of 500 to 1000 nM. With `Cc1cccc2nc(C(C)Nc3ncnc4[nH]cnc34)c(-c3ccccc3F)c(=O)n12` (stereo not shown) [Example 59, 3-(2-Fluorophenyl)-6-methyl-2-[1-(9H-purin-6-ylamino)ethyl]-4H-pyrido[1,2-a]pyrimidin-4-one trifluoroacetic acid salt] the IC50 was 100 to 500 nM. `Cc1csc2nc(C(C)Nc3ncnc4[nH]cnc34)c(-c3ccc(F)cc3)c(=O)n12` (stereo not shown) [Example 22, 6-(4-fluorophenyl)-3-methyl-7-[1-(9H-purin-6-ylamino)ethyl]-5H-[1,3]thiazolo[3,2-a]pyrimidin-5-one trifluoroacetic acid salt] showed an IC50 of 100 to 500 nM. For `Cc1csc2nc(C(C)Nc3nc(N)nc4[nH]cnc34)c(-c3cc(F)cc(Cl)c3)c(=O)n12` (stereo not shown) [Example 35, 7-{1-[(2-amino-9H-purin-6-yl)amino]ethyl}-6-(3-chloro-5-fluorophenyl)-3-methyl-5H-[1,3]thiazolo[3,2-a]pyrimidin-5-one trifluoroacetic acid salt], the IC50 was < 50 nM. `Cc1cccc2nc(C(C)Nc3ncnc4[nH]cnc34)c(-c3cc(F)cc(F)c3)c(=O)n12` (stereo not shown) [Example 69, 3-(3,5-Difluorophenyl)-6-methyl-2-[1-(9H-purin-6-ylamino)ethyl]-4H-pyrido[1,2-a]pyrimidin-4-one trifluoroacetic acid salt] showed an IC50 of 50 to 100 nM. With `Cc1csc2nc(C(C)Nc3ncnc4[nH]cnc34)c(-c3ccncc3)c(=O)n12` (stereo not shown) [Example 19, 3-methyl-7-[1-(9H-purin-6-ylamino)ethyl]-6-pyridin-4-yl-5H-[1,3]thiazolo[3,2-a]pyrimidin-5-one] the IC50 was > 1000 nM. For `Cc1ccccc1-c1c(C(C)Nc2ncnc3[nH]cnc23)nc2cccc(C)n2c1=O` (stereo not shown) [Example 63, 6-Methyl-3-(2-methylphenyl)-2-[1-(9H-purin-6-ylamino)ethyl]-4H-pyrido[1,2-a]pyrimidin-4-one trifluoroacetic acid salt], the IC50 was 100 to 500 nM. With `Cc1cccc2nc(C(C)Nc3nc(N)nc4[nH]cnc34)c(-c3cccc(Cl)c3)c(=O)n12` (stereo not shown) [Example 54, 2-{1-[(2-Amino-9H-purin-6-yl)amino]ethyl}-3-(3-chlorophenyl)-6-methyl-4H-pyrido[1,2-a]pyrimidin-4-one trifluoroacetic acid salt] the IC50 was 50 to 100 nM. For `Cc1csc2nc(C(C)Nc3nc(N)nc4[nH]cnc34)c(-c3ccccc3F)c(=O)n12` (stereo not shown) [Example 33, 7-{1-[(2-amino-9H-purin-6-yl)amino]ethyl}-6-(2-fluorophenyl)-3-methyl-5H-[1,3]thiazolo[3,2-a]pyrimidin-5-one trifluoroacetic acid salt], the IC50 was < 50 nM. In the case of `Cc1ccc(-c2c(C(C)Nc3ncnc4[nH]cnc34)nc3scc(C)n3c2=O)cc1` (stereo not shown) [Example 31, 3-methyl-6-(4-methylphenyl)-7-[1-(9H-purin-6-ylamino)ethyl]-5H-[1,3]thiazolo[3,2-a]pyrimidin-5-one trifluoroacetic acid salt], the IC50 is reported as 100 to 500 nM.
